We go through six compounds from patent US4166114A, “Aminoglycoside antibiotic derivatives and method of use” (Shionogi & Co., Ltd., priority 1976, dated 1979).

In general, MIC refers to the lowest concentration that inhibits growth of the organism.

Converted amounts (≈) assume the structure as drawn. Where two headings read alike, the source gives them in different places.

One assay relates to Proteus vulgaris TB-162. The assay is described as follows: MIC (minimum inhibitory concentration). Format: cell-based. Conditions: tobramycin resistant organism.
For assay [1], the system named is Pseudomonas aeruginosa TB-151. The assay is described as follows: MIC (minimum inhibitory concentration). It is filed as cell-based. The conditions noted are these: tobramycin resistant organism.
[2] abbreviates: Proteus vulgaris, TB162, Table 3, read-out: MIC.
[3] abbreviates: Pseudomonas aeruginosa, TB151, Table 3, read-out: MIC.
[4] abbreviates: Proteus vulgaris, TB162, Table 2, read-out: MIC.
Where [5] appears, read: Pseudomonas aeruginosa, TB151, Table 2, read-out: MIC.

Regarding `NC[C@H]1O[C@H](O[C@H]2[C@H](O)[C@@H](O[C@H]3O[C@H](CO)[C@@H](O)[C@H](N)[C@H]3O)[C@H](NC(=O)C3(O)CCNC3)C[C@@H]2N)[C@H](O)[C@@H](O)[C@@H]1O` (stereo partly drawn) [KM-A der., 1-N-(3-hydroxypyrrolidine-3-carbonyl)-kanamycin A], the values for the minimum inhibitory concentration (MIC) (in the assay with Proteus vulgaris TB-162 (setting [2]); in assay [1] (setting [3])) were 3.13 µg/mL (≈ 5.24 µM) and 6.25 µg/mL (≈ 10.5 µM), respectively.
As to `NC[C@H]1O[C@H](O[C@H]2[C@H](O)[C@@H](O[C@H]3O[C@H](CO)[C@@H](O)[C@H](N)[C@H]3O)[C@H](N)C[C@@H]2N)[C@H](O)[C@@H](O)[C@@H]1O` [KM-A, kanamycin A], the MIC in the assay on Proteus vulgaris TB-162 (setting [4]) is more than 200 µg/mL; in the assay on Proteus vulgaris TB-162 (setting [2]) it was more than 100 µg/mL; in assay [1] (setting [5]), more than 200 µg/mL; in assay [1] (setting [3]) it was more than 100 µg/mL.
Take `CN[C@@H]1[C@@H](O)[C@@H](O[C@@H]2[C@@H](O)[C@H](O[C@H]3OC(CN)=CC[C@H]3N)[C@@H](N)C[C@H]2N)OC[C@]1(C)O` [SSM, sisomicin]: the MIC is 12.5 µg/mL (≈ 27.9 µM) in the assay on Proteus vulgaris TB-162 (setting [4]) and more than 200 µg/mL in assay [1] (setting [5]).
As for `NC[C@H]1O[C@H](O[C@H]2[C@H](O)[C@@H](O[C@H]3O[C@H](CO)[C@@H](O)[C@H](N)[C@H]3O)[C@H](NC(=O)C3(O)CCNCC3)C[C@@H]2N)[C@H](N)C[C@@H]1O` [TOB der.], the minimum inhibitory concentration (MIC) in the assay on Proteus vulgaris TB-162 (setting [4]) was 6.25 µg/mL (≈ 10.5 µM); with Proteus vulgaris TB-162 (setting [2]), 1.56 µg/mL (≈ 2.62 µM); in assay [1] (setting [5]), 6.25 µg/mL (≈ 10.5 µM); in assay [1] (setting [3]), 3.13 µg/mL (≈ 5.26 µM).
As for `NC[C@H]1O[C@H](O[C@H]2[C@H](O)[C@@H](O[C@H]3O[C@H](CO)[C@@H](O)[C@H](N)[C@H]3O)[C@H](N)C[C@@H]2N)[C@H](N)C[C@@H]1O` [TOB, tobramycin], the MIC came out at 12.5 µg/mL (≈ 26.7 µM) with Proteus vulgaris TB-162 (setting [4]), 6.25 µg/mL (≈ 13.4 µM) in the assay with Proteus vulgaris TB-162 (setting [2]), 100 µg/mL (≈ 214 µM) in assay [1] (setting [5]) and 100 µg/mL (≈ 214 µM) in assay [1] (setting [3]).
On to gentamicin [GM], for which the minimum inhibitory concentration (MIC) is 6.25 µg/mL with Proteus vulgaris TB-162 (Table 2) and 100 µg/mL in assay [1] (Table 2).
